One test concerns the target Fibroblast growth factor 2 (Homo sapiens, UniProt P09038). Put plainly: Binding affinity to basic fibroblast growth factor (unknown origin) using sugar chip immobilized compound by surface plasmon resonance method.
Conditions: not given; call rule not given here
Chain of Fibroblast growth factor 2 (P09038 143-288 limits assumed): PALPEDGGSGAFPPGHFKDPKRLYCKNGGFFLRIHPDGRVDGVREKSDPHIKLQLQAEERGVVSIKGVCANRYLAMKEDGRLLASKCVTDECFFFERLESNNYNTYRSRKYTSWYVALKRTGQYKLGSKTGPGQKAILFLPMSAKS
With `CC(=O)N[C@H]1[C@@H](OC[C@@H](O)[C@@H](O)[C@H](O)[C@@H](O)CNc2cccc(NC(=O)CCCCC3CCSS3)c2)O[C@H](CO)[C@H](OS(=O)(=O)[O-])[C@@H]1O[C@@H]1O[C@H](C(=O)[O-])[C@@H](O)[C@H](O)[C@H]1O.[Na+].[Na+]` (mixture of isomers), the Kd result is reported as “Not Active”.
As for `CC(=O)N[C@H]1[C@@H](OC[C@@H](O)[C@@H](O)[C@H](O)[C@@H](O)CNc2cccc(NC(=O)CCCCC3CCSS3)c2)O[C@H](CO)[C@H](O)[C@@H]1O[C@@H]1O[C@H](C(=O)[O-])[C@@H](O)[C@H](O)[C@H]1O.[Na+]` (stereo partly specified), the Kd result was “Not Active”.

Still in this test, the particulars now being: read-out: Kd.
Turning to `CC(=O)N[C@H]1[C@@H](OC[C@@H](O)[C@@H](O)[C@H](O)[C@@H](O)CNc2cccc(NC(=O)CCCCC3CCSS3)c2)O[C@H](COS(=O)(=O)O)[C@H](O)[C@@H]1O[C@@H]1O[C@H](C(=O)O)[C@@H](O)[C@H](O)[C@H]1OS(=O)(=O)O` (mixture of isomers), the Kd came out at 23 nM.
The same measure, in the same setting: with `CC(=O)N[C@H]1[C@@H](OC[C@@H](O)[C@@H](O)[C@H](O)[C@@H](O)CNc2cccc(NC(=O)CCCCC3CCSS3)c2)O[C@H](CO)[C@H](OS(=O)(=O)O)[C@@H]1O[C@@H]1O[C@H](C(=O)O)[C@@H](O)[C@H](OS(=O)(=O)O)[C@H]1OS(=O)(=O)O` (mixture of isomers) the figure was 52 nM; with `CC(=O)N[C@H]1[C@@H](OC[C@@H](O)[C@@H](O)[C@H](O)[C@@H](O)CNc2cccc(NC(=O)CCCCC3CCSS3)c2)O[C@H](COS(=O)(=O)O)[C@H](O)[C@@H]1O[C@@H]1O[C@H](C(=O)O)[C@@H](O)[C@H](OS(=O)(=O)O)[C@H]1OS(=O)(=O)O` (mixture of isomers), 99 nM; with `CC(=O)N[C@H]1[C@@H](OC[C@@H](O)[C@@H](O)[C@H](O)[C@@H](O)CNc2cccc(NC(=O)CCCCC3CCSS3)c2)O[C@H](CO)[C@H](O)[C@@H]1O[C@@H]1O[C@H](C(=O)O)[C@@H](O)[C@H](OS(=O)(=O)O)[C@H]1O` (mixture of isomers), 25 nM.
As to `CC(=O)N[C@H]1[C@@H](OC[C@@H](O)[C@@H](O)[C@H](O)[C@@H](O)CNc2cccc(NC(=O)CCCCC3CCSS3)c2)O[C@H](COS(=O)(=O)O)[C@H](OS(=O)(=O)O)[C@@H]1O[C@@H]1O[C@H](C(=O)O)[C@@H](O)[C@H](OS(=O)(=O)O)[C@H]1OS(=O)(=O)O` (mixture of isomers), the equilibrium dissociation constant (Kd) was 4.9 nM.
The same measure, in the same setting: the result for `CC(=O)N[C@H]1[C@@H](OC[C@@H](O)[C@@H](O)[C@H](O)[C@@H](O)CNc2cccc(NC(=O)CCCCC3CCSS3)c2)O[C@H](CO)[C@H](OS(=O)(=O)O)[C@@H]1O[C@@H]1O[C@H](C(=O)O)[C@@H](O)[C@H](O)[C@H]1OS(=O)(=O)O` (mixture of isomers) reads 41 nM; that for `CC(=O)N[C@H]1[C@@H](OC[C@@H](O)[C@@H](O)[C@H](O)[C@@H](O)CNc2cccc(NC(=O)CCCCC3CCSS3)c2)O[C@H](CO)[C@H](O)[C@@H]1O[C@@H]1O[C@H](C(=O)O)[C@@H](O)[C@H](OS(=O)(=O)O)[C@H]1OS(=O)(=O)O` (mixture of isomers), 95 nM; that for `CC(=O)N[C@H]1[C@@H](OC[C@@H](O)[C@@H](O)[C@H](O)[C@@H](O)CNc2cccc(NC(=O)CCCCC3CCSS3)c2)O[C@H](COS(=O)(=O)O)[C@H](OS(=O)(=O)O)[C@@H]1O[C@@H]1O[C@H](C(=O)O)[C@@H](O)[C@H](OS(=O)(=O)O)[C@H]1O` (mixture of isomers), 60 nM.
As for `CC(=O)N[C@H]1[C@@H](OC[C@@H](O)[C@@H](O)[C@H](O)[C@@H](O)CNc2cccc(NC(=O)CCCCC3CCSS3)c2)O[C@H](COS(=O)(=O)O)[C@H](O)[C@@H]1O[C@@H]1O[C@H](C(=O)O)[C@@H](O)[C@H](O)[C@H]1O` (mixture of isomers), the Kd was found to be 36 nM.
For `CC(=O)N[C@H]1[C@@H](OC[C@@H](O)[C@@H](O)[C@H](O)[C@@H](O)CNc2cccc(NC(=O)CCCCC3CCSS3)c2)O[C@H](COS(=O)(=O)O)[C@H](OS(=O)(=O)O)[C@@H]1O[C@@H]1O[C@H](C(=O)O)[C@@H](O)[C@H](O)[C@H]1O` (stereo partly specified), the Kd came to 16 nM.
Same read-out and setting: with `CC(=O)N[C@H]1[C@@H](OC[C@@H](O)[C@@H](O)[C@H](O)[C@@H](O)CNc2cccc(NC(=O)CCCCC3CCSS3)c2)O[C@H](CO)[C@H](OS(=O)(=O)O)[C@@H]1O[C@@H]1O[C@H](C(=O)O)[C@@H](O)[C@H](OS(=O)(=O)O)[C@H]1O` (stereo partly specified) the figure was 41 nM; with `CC(=O)N[C@H]1[C@@H](OC[C@@H](O)[C@@H](O)[C@H](O)[C@@H](O)CNc2cccc(NC(=O)CCCCC3CCSS3)c2)O[C@H](COS(=O)(=O)O)[C@H](OS(=O)(=O)O)[C@@H]1O[C@@H]1O[C@H](C(=O)O)[C@@H](O)[C@H](O)[C@H]1OS(=O)(=O)O` (mixture of isomers), 21 nM; with `CC(=O)N[C@H]1[C@@H](OC[C@@H](O)[C@@H](O)[C@H](O)[C@@H](O)CNc2cccc(NC(=O)CCCCC3CCSS3)c2)O[C@H](COS(=O)(=O)O)[C@H](O)[C@@H]1O[C@@H]1O[C@H](C(=O)O)[C@@H](O)[C@H](OS(=O)(=O)O)[C@H]1O` (mixture of isomers), 147 nM.
As for `CC(=O)N[C@H]1[C@@H](OC[C@@H](O)[C@@H](O)[C@H](O)[C@@H](O)CNc2cccc(NC(=O)CCCCC3CCSS3)c2)O[C@H](CO)[C@H](O)[C@@H]1O[C@@H]1O[C@H](C(=O)O)[C@@H](O)[C@H](O)[C@H]1OS(=O)(=O)O` (mixture of isomers), the Kd was 62 nM.

The Kd is the free concentration of one partner at which half of the binding sites on the other are occupied at equilibrium, for simple one-to-one binding.
